What was measured:
Carbonic anhydrase 1 = Carbonic anhydrase 1 (Homo sapiens, UniProt P00915); experiment: Inhibition of human recombinant carbonic anhydrase 1 expressed in Escherichia coli assessed as reduction in CO2 hydration preincubated for 15 mins prior to testing measured for 10 to 100 secs by stopped-flow assay
Carbonic anhydrase 2 = Carbonic anhydrase 2 (Homo sapiens, UniProt P00918); experiment: Inhibition of human recombinant carbonic anhydrase 2 expressed in Escherichia coli assessed as reduction in CO2 hydration preincubated for 15 mins prior to testing measured for 10 to 100 secs by stopped-flow assay
Carbonic anhydrase 7 = Carbonic anhydrase 7 (Homo sapiens, UniProt P43166); experiment: Inhibition of human recombinant carbonic anhydrase 7 expressed in Escherichia coli assessed as reduction in CO2 hydration preincubated for 15 mins prior to testing measured for 10 to 100 secs by stopped-flow assay
Sequence of Carbonic anhydrase 7 (P43166 whole entry): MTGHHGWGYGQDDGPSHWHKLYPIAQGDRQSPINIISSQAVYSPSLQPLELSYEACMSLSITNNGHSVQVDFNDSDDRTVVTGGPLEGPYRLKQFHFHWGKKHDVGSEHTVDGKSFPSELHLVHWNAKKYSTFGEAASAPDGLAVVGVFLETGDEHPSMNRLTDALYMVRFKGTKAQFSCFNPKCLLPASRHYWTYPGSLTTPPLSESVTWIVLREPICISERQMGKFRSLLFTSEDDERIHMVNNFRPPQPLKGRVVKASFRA

Carbonic anhydrase 4 = Carbonic anhydrase 4 (Homo sapiens, UniProt P22748); experiment: Inhibition of human recombinant carbonic anhydrase 4 expressed in Escherichia coli assessed as reduction in CO2 hydration preincubated for 15 mins prior to testing measured for 10 to 100 secs by stopped-flow assay
Sequence of Carbonic anhydrase 4 (P22748 whole entry): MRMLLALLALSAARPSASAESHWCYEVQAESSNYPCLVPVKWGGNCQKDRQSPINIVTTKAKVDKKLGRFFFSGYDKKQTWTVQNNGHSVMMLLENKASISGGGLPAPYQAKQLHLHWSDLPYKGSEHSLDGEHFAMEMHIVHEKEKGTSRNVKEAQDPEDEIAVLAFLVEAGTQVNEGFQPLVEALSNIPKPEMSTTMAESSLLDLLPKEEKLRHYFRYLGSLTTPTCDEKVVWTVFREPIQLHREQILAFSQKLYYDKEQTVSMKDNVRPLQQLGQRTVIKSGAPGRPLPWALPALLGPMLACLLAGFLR

Measured: Ki

Sequence of Carbonic anhydrase 1 (P00915 whole entry): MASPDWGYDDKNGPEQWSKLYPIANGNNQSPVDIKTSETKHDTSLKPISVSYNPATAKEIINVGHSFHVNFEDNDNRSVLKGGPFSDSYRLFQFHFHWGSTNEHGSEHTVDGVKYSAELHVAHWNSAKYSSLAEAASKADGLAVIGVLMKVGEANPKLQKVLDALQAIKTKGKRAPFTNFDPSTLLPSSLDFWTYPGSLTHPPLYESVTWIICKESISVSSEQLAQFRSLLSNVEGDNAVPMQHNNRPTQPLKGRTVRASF

N#CC1=C(N)OC2=C(C(=O)CCC2)C1c1cccc(-c2nnn[nH]2)c1 (stereo not given)
> 10 µM: all assays above

CC1(C)CC(=O)C2=C(C1)OC(N)=C(C#N)C2c1cccc(-c2nnn[nH]2)c1 (stereo not given)
> 10 µM: all assays above

O=Cc1ccc(-c2nnn[nH]2)cc1
> 10 µM: all assays above

N#CC1=C(N)OC2=C(C(=O)CCC2)C1c1ccc(-c2nnn[nH]2)cc1 (stereo not given)
> 10 µM: all assays above

O=C1CCCC2=C1C(c1cccc(-c3nnn[nH]3)c1)C1=C(CCCC1=O)O2
> 10 µM: all assays above

O=Cc1cccc(-c2nnn[nH]2)c1
> 10 µM: all assays above

CC1(C)CC(=O)C2=C(C1)OC1=C(C(=O)CC(C)(C)C1)C2c1cccc(-c2nnn[nH]2)c1
> 10 µM: all assays above

CC1(C)CC(=O)C2=C(C1)OC1=C(C(=O)CC(C)(C)C1)C2c1ccc(-c2nnn[nH]2)cc1
> 10 µM: all assays above

O=C1CCCC2=C1C(c1ccc(-c3nnn[nH]3)cc1)C1=C(CCCC1=O)O2
> 10 µM: all assays above

CC1(C)CC(=O)C2=C(C1)OC(N)=C(C#N)C2c1ccc(-c2nnn[nH]2)cc1 (stereo not given)
> 10 µM: all assays above
